What was measured:
Assay in all cases: Protein kinase inhibition assay
Format in all cases: biochemical
CK1δ(h) = CK1δ(h) (Homo sapiens, UniProt P48730); conditions: read-out: percent residual activity of CK1δ(h)
Procedure: (§1) Certain compounds were tested for activity in protein kinase inhibition assays. All substrates were dissolved and diluted to working stocks in de-ionized water, apart from histone H1 (10× working stock in 20 mM MOPS pH 7.0), PDKtide (10× working stock in 50 mM Tris pH 7.0) ATF2 (which is typically stored at a 20× working stock in 50 mM Tris pH 7.5, 150 mM NaCl, 0.1 mM EGTA, 0.03% Brij-35, 50% glycerol, 1 mM benzamidine, 0.2 mM PMSF and 0.1% R-mercaptoethanol), KKLNRTLSFAEPG (SEQ ID NO:203) and RRRLSFAEPG (SEQ ID NO:204) (50 mM HEPES pH 7.4) and GGEEEEYFELVKKKK (SEQ ID NO:205) (20 mM MOPS pH 7.0). All kinases were pre-diluted to a 10× working concentration prior to addition into the assay. The composition of the dilution buffer for each kinase is detailed below.
(§2) In a final reaction volume of 25 μl, CK1δ (h) (5-10 mU) is incubated with 8 mM MOPS pH 7.0, 0.2 mM EDTA, 200 μM KRRRALS(p)VASLPGL (SEQ ID NO:214), 10 mM MgAcetate and [gamma-33P-ATP] (specific activity approx. 500 cpm/pmol, concentration as required). The reaction is initiated by the addition of the MgATP mix. After incubation for 40 minutes at room temperature, the reaction is stopped by the addition of 5 μl of a 3% phosphoric acid solution. 10 μl of the reaction is then spotted onto a P30 filtermat and washed three times for 5 minutes in 75 mM phosphoric acid and once in methanol prior to drying and scintillation counting.

JNK1α1(h) = JNK1α1(h) (Homo sapiens, UniProt P45983); conditions: read-out: percent residual activity of JNK1α1(h)
Procedure: as §1
as §2, with “JNK1α” for “CK1δ”, “50” for “8”, “Tris” for “MOPS”, “7.5, 0.1” for “7.0, 0.2”, “EGTA, 0.1% R-mercaptoethanol, 3” for “EDTA, 200”, “ATF2,” for “KRRRALS(p)VASLPGL (SEQ ID NO:214),”

MKK6(h) = MKK6(h) (Homo sapiens, UniProt P52564); conditions: read-out: percent residual activity of MKK6(h)
Procedure: as §1
The reaction is initiated by the addition of the MgATP. After incubation for 40 minutes at room temperature, 5 μl of this incubation mix is used to initiate a SAPK2a (h) assay, which is described on page 18 of this book.

Lyn(m) = Lyn(m) (Mus musculus, UniProt P25911); conditions: read-out: percent residual activity of Lyn(m)
Procedure: as §1
In a final reaction volume of 25 μl, Lyn (m) (5-10 mU) is incubated with 50 mM Tris pH 7.5, 0.1 mM EGTA, 0.1 mM Na3VO4, 0.1% R-mercaptoethanol, 0.1 mg/ml poly(Glu, Tyr) 4:1, 10 mM MgAcetate and [gamma-33P-ATP] (specific activity approx. 500 cpm/pmol, concentration as required). The reaction is initiated by the addition of the MgATP mix. After incubation for 40 minutes at room temperature, the reaction is stopped by the addition of 5 μl of a 3% phosphoric acid solution. […]

cKit(h) = cKit(h) (Homo sapiens, UniProt P10721); conditions: read-out: percent residual activity of cKit(h)
Procedure: as §1
as §2, with “cKit” for “CK1δ”, “10 mM MnCl2, 0.1 mg/ml poly(Glu, Tyr) 4:1,” for “200 μM KRRRALS(p)VASLPGL (SEQ ID NO:214),”, “Filtermat A” for “P30 filtermat”

DDR2(h) = DDR2(h) (Homo sapiens, UniProt Q16832); conditions: read-out: percent residual activity of DDR2(h)
Procedure: as §1
In a final reaction volume of 25 μl, DDR2 (h) (5-10 mU) is incubated with 8 mM MOPS pH 7.0, 0.2 mM EDTA, 250 μM KKSRGDYMTMQIG (SEQ ID NO:210), 10 mM MnCl2, 10 mM MgAcetate and [y-33P-ATP] (specific activity approx. 500 cpm/pmol, concentration as required). The reaction is initiated by the addition of the MgATP mix. After incubation for 40 minutes at room temperature, the reaction is stopped by the addition of 5 μl of a 3% phosphoric acid solution. […]

Flt3(D835Y)(h) = Flt3(D835Y)(h) (Homo sapiens, UniProt P36888, D835Y); conditions: read-out: percent residual activity of Flt3(D835Y)(h)
Procedure: as §1
as §2, with “Flt3 (D835Y)” for “CK1δ”, “50” for “200”, “EAIYAAPFAKKK” for “KRRRALS(p)VASLPGL”, “NO:206),” for “NO:214),”

Sequence of Lyn(m) (P25911 whole entry): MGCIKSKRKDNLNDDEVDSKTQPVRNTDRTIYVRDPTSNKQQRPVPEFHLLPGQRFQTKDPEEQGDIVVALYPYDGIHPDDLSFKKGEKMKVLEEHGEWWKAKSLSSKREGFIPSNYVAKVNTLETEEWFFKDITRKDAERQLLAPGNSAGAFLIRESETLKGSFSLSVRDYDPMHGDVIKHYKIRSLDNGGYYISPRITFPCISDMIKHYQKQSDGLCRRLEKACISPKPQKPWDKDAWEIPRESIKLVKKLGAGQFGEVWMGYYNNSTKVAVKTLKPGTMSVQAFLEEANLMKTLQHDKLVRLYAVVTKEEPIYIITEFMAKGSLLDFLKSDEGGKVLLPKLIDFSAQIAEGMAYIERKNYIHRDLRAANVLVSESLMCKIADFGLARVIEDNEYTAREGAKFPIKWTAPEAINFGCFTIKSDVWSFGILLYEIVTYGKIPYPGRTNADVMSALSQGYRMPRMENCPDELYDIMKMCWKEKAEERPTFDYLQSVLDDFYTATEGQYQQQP
Sequence of MKK6(h) (P52564 whole entry): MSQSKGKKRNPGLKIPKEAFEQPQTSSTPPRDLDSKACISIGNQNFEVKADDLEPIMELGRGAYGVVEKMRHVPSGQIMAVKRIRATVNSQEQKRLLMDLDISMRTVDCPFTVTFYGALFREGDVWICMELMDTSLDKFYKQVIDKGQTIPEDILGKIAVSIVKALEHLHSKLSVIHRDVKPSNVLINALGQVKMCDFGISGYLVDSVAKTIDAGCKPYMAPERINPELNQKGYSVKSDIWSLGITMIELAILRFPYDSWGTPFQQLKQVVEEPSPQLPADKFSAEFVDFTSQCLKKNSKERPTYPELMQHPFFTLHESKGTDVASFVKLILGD
Sequence of cKit(h) (P10721 26-976): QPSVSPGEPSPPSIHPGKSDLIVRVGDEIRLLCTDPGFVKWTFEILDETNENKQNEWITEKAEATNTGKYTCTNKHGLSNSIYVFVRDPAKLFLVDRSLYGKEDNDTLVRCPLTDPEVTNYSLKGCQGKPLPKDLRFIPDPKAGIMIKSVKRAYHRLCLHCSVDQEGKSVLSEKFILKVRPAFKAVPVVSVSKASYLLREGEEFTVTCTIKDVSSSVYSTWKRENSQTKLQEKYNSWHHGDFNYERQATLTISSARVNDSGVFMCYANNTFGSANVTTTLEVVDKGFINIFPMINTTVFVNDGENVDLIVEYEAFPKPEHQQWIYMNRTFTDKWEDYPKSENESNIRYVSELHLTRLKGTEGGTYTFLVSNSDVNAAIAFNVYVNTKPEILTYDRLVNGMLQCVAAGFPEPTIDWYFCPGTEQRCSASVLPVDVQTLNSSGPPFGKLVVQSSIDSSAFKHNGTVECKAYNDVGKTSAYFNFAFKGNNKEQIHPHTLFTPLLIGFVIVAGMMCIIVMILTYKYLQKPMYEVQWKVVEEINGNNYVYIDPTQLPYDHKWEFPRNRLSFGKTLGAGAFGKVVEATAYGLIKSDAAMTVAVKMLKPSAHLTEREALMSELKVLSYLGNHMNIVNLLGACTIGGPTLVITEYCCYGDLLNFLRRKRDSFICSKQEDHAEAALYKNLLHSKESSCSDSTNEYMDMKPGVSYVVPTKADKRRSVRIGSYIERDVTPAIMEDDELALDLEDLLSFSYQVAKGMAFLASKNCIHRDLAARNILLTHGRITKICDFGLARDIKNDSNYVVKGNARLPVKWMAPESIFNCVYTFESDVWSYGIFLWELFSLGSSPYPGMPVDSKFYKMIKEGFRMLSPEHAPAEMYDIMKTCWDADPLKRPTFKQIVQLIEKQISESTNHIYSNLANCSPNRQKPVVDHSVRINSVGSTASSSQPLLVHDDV
Sequence of JNK1α1(h) (P45983 1-384 isoform P45983-2): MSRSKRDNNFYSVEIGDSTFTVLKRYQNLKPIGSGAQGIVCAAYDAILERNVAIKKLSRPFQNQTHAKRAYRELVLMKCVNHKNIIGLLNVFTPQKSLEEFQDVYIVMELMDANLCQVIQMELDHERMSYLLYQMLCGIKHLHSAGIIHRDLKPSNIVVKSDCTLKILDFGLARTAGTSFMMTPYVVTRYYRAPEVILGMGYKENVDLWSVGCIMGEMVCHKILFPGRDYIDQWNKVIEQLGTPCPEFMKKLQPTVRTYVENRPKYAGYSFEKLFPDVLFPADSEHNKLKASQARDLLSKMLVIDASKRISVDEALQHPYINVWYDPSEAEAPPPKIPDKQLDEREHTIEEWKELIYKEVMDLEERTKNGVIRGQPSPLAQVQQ
Sequence of DDR2(h) (Q16832 22-855): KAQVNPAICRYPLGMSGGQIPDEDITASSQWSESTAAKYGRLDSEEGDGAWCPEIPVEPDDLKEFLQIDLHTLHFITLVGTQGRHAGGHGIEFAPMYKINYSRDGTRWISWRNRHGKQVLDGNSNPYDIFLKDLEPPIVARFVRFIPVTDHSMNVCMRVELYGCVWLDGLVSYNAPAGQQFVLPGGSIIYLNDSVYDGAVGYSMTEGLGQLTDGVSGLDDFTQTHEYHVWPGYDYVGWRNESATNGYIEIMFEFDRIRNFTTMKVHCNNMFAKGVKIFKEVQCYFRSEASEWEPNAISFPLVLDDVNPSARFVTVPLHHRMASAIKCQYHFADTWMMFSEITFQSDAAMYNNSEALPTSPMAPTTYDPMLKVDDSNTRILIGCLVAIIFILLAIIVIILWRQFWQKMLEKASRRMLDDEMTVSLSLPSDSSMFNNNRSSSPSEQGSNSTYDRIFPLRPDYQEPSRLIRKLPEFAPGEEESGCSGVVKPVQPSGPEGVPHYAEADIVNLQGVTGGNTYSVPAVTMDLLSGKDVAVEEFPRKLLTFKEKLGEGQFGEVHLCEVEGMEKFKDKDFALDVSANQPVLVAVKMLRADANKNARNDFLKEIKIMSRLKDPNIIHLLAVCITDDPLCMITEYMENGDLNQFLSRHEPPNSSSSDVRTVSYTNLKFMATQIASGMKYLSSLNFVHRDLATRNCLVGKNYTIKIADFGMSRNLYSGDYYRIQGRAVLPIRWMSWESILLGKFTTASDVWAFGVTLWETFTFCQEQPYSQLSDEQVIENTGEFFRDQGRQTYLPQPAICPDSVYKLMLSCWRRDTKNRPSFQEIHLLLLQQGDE
Sequence of CK1δ(h) (P48730 whole entry): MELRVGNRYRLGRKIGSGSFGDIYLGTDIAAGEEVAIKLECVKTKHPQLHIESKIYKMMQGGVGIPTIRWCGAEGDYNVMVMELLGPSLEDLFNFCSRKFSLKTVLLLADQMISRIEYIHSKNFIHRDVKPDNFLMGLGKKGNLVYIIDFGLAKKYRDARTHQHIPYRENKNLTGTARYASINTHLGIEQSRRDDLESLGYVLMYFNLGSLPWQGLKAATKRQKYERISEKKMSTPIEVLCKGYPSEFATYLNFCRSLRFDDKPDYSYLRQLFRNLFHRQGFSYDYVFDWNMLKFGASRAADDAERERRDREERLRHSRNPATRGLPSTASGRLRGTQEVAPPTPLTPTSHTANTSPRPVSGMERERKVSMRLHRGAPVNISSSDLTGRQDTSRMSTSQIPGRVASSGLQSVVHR

Row | remaining activity at 2.5 µM (CK1δ(h)) | remaining activity at 2.5 µM (JNK1α1(h)) | remaining activity at 2.5 µM (MKK6(h)) | remaining activity at 2.5 µM (Lyn(m)) | remaining activity at 2.5 µM (cKit(h)) | remaining activity at 2.5 µM (DDR2(h)) | remaining activity at 2.5 µM (Flt3(D835Y)(h)) | Structure (SMILES)
1 | 87% | 94% | 100% | 89% | 111% | 77% | 36% | CN1CCCC1CCNC(=O)c1cn2c3c(c(N4CCC(c5cnccn5)C4)c(F)cc3c1=O)Oc1cc3ccccc3cc1-2 (centres unmarked) [Compound A-1]
2 | 92% | 100% | 90% | 106% | 114% | 95% | 78% | CC(=O)N1CCN(c2ccc3c(=O)c(C(=O)NCCN4CCCC4)c4n(C)c5ccccc5n4c3n2)CC1 [Compound B-1]

Reference: patent publication US20070117770A1, “Human ribosomal DNA (rDNA) and ribosomal RNA (rRNA) nucleic acids and uses thereof” (Cylene Pharmaceuticals, Inc., priority 2005, published 2007)
